In brackets after ≈: the same amount, converted by molar mass.
Columns and labels:
physchem [1] = conditions: 0.01 M HCl, pH 2
[2] = Hepatic extraction ratio in human liver microsomes at 1 uM up to 60 mins by LC-MS analysis; type: ADME; conditions: read-out: ERH
Plasmodium falciparum [3] = experiment: microbe, parasite or virus in culture; conditions: K1
Plasmodium falciparum [4] = experiment: microbe, parasite or virus in culture; conditions: NF54
[5] = Apparent Cmax in GFP-transfected Plasmodium berghei ANKA infected mouse at 40 mg/kg, po qd for 4 days; type: ADME, organism-based; design: dose 40 mg/kg, route oral; conditions: in vivo
Plasmodium berghei [6] = experiment: Antimalarial activity against GFP-transfected Plasmodium berghei ANKA infected in mouse assessed as mean survival days at 40 mg/kg, po qd for 4 days; type: functional
Plasmodium berghei [7] = experiment: Antimalarial activity against GFP-transfected Plasmodium berghei ANKA infected in mouse assessed as reduction of parasitemia at 40 mg/kg, po qd for 4 days; type: functional
physchem [8] = conditions: buffer, pH 2
Plasmodium berghei [9] = conditions: dose 30 mg/kg; route oral
Plasmodium berghei [10] = conditions: dose 30 mg/kg; route oral; remark: listed apart in the source

Compound	solubility (physchem [1]) [µg/mL]	IC50 (Plasmodium falciparum [3]) [nM]	IC50 (Plasmodium falciparum [4]) [nM]	also measured
COc1ccc(-c2ccc3ncc(-c4ccncc4)n3n2)cc1OC	> 100	14	16	hepatic extraction ratio at 1 h, 1 µM [2]: 0.86
CS(=O)(=O)Nc1cccc(-c2ccc3ncc(-c4ccncc4)n3n2)c1	> 100	15	16	hepatic extraction ratio at 1 h, 1 µM [2]: 0.82
COc1ccc(-c2cnc3ccc(-c4cccnc4)nn23)cc1OC	–	23.5	25.9	hepatic extraction ratio at 1 h, 1 µM [2]: 0.92
CS(=O)(=O)c1cccc(-c2ccc3ncc(-c4ccncc4)n3n2)c1	> 100	28	46	–
CC(C)(C)OC(=O)NCc1cccc(-c2ccc3ncc(-c4ccncc4)n3n2)c1	> 100	97	95	–
FC(F)(F)Oc1cccc(-c2ccc3ncc(-c4ccncc4)n3n2)c1	> 100	118	146	–
CC(C)(C)c1cccc(-c2ccc3ncc(-c4ccncc4)n3n2)c1	> 100	122	137	–
Fc1ccc(-c2ccc3ncc(-c4ccncc4)n3n2)cc1	> 100	138	186	–
Clc1cccc(-c2ccc3ncc(-c4ccncc4)n3n2)c1	> 100	183	202	–
c1cc(-c2ccc3ncc(-c4ccncc4)n3n2)c2ccncc2c1	> 100	192	223	–
Fc1cccc(-c2ccc3ncc(-c4ccncc4)n3n2)c1	> 100	203	272	–
c1cc(-c2ccc3ncc(-c4ccncc4)n3n2)cc(N2CCOCC2)c1	> 100	246	283	–
Fc1ccc(-c2ccc3ncc(-c4ccncc4)n3n2)cc1F	> 100	415	496	–
COc1ccc(-c2ccc3ncc(-c4ccncc4)n3n2)cn1	> 100	412	603	–
NCc1ccc(-c2ccc3ncc(-c4ccncc4)n3n2)cc1	> 100	491	335	–
NCc1cccc(-c2ccc3ncc(-c4ccncc4)n3n2)c1	> 100	588	289	–
FC(F)(F)c1ccc(-c2ccc3ncc(-c4ccncc4)n3n2)cn1	> 100	873	964	–
FC(F)(F)Oc1ccc(-c2ccc3ncc(-c4ccncc4)n3n2)cc1	> 100	980	1060	–
CN1CCN(S(=O)(=O)c2ccc(-c3ccc4ncc(-c5ccncc5)n4n3)cc2)CC1	> 100	1250	739	–

Compound	solubility (physchem [1]) [µg/mL]	IC50 (Plasmodium falciparum [3]) [nM]	IC50 (Plasmodium falciparum [4]) [nM]	also measured
CC(C)(C)c1ccc(-c2ccc3ncc(-c4ccncc4)n3n2)cc1	> 100	1420	1880	–
O=S(=O)(c1ccc(-c2ccc3ncc(-c4ccncc4)n3n2)cc1)N1CCOCC1	> 100	1490	2240	–
CC(C)(C)OC(=O)NCc1ccc(-c2ccc3ncc(-c4ccncc4)n3n2)cc1	> 100	1610	1630	–
c1cnc2c(-c3ccc4ncc(-c5ccncc5)n4n3)cccc2c1	> 100	1670	2150	–
c1cc(-c2cnc3ccc(-c4ccc(N5CCOCC5)cc4)nn23)ccn1	> 100	> 2800	> 2800	–
CS(=O)(=O)c1ccc(-c2ccc3ncc(-c4ccncc4)n3n2)cc1	> 100	> 2850	> 2850	–
C1=C(c2ccc3ncc(-c4ccncc4)n3n2)Cc2nonc2C1	> 100	> 3180	> 3180	–
CS(=O)(=O)c1ccc(-c2cnc3ccc(-c4cccc(S(=O)(=O)NC5CC5)c4)nn23)cc1	> 100	0.58	0.66	–
CS(=O)(=O)c1ccc(-c2cnc3ccc(-c4cccc(S(=O)(=O)NCc5ccccc5)c4)nn23)cc1	> 100	3.3	3.5	–
CS(=O)(=O)c1ccc(-c2cnc3ccc(-c4cccc(S(N)(=O)=O)c4)nn23)cc1	> 100	4.4	4.4	Cmax [5]: 20 nM; MSD (Plasmodium berghei [6]): 4 days; MSD (Plasmodium berghei [7]): <40 days
CN1CCN(C(=O)c2cccc(-c3ccc4ncc(-c5ccc(S(C)(=O)=O)cc5)n4n3)c2)CC1	> 100	5.5	6.1	solubility (physchem [8]): 50 µg/mL (≈ 105 µM)
CS(=O)(=O)c1ccc(-c2cnc3ccc(-c4cccc(C(=O)N5CCCCC5)c4)nn23)cc1	> 100	7.2	6.5	–
CS(=O)(=O)c1ccc(-c2cnc3ccc(-c4cccc(C(=O)NS(=O)(=O)C5CC5)c4)nn23)cc1	> 100	11	14	–
CS(=O)(=O)Nc1cccc(-c2ccc3ncc(-c4ccc(S(C)(=O)=O)cc4)n3n2)c1	> 100	19	19	–
Cc1ccc(-c2ccc3ncc(-c4ccc(S(C)(=O)=O)cc4)n3n2)cc1C(F)(F)F	> 100	26	32	MSD (Plasmodium berghei [6]): 7 days; MSD (Plasmodium berghei [7]): 79 days
CS(=O)(=O)c1ccc(-c2cnc3ccc(-c4cccc(C(F)(F)F)c4)nn23)cc1	> 100	55	79	–
CS(=O)(=O)c1ccc(-c2cnc3ccc(-c4cccc(C(=O)NCCO)c4)nn23)cc1	> 100	78	99	solubility (physchem [8]): 50 µg/mL (≈ 115 µM)
CS(=O)(=O)c1ccc(-c2cnc3ccc(-c4cccc(C(N)=O)c4)nn23)cc1	> 100	99	102	–
CS(=O)(=O)c1ccc(-c2cnc3ccc(-c4cccc(C#N)c4)nn23)cc1	> 100	96	107	–

Compound	solubility (physchem [1]) [µg/mL]	IC50 (Plasmodium falciparum [3]) [nM]	IC50 (Plasmodium falciparum [4]) [nM]	also measured
CN(C)c1cccc(-c2ccc3ncc(-c4ccc(S(C)(=O)=O)cc4)n3n2)c1	> 100	107	117	–
CS(=O)(=O)c1ccc(-c2cnc3ccc(-c4ccc(C(F)(F)F)cc4)nn23)cc1	> 100	134	189	–
CS(=O)(=O)c1ccc(-c2cnc3ccc(-c4ccc(C(=O)NC5CCCC5)cc4)nn23)cc1	> 100	146	154	–
CS(=O)(=O)c1ccc(-c2cnc3ccc(-c4ccc(F)c(Cl)c4)nn23)cc1	> 100	152	179	–
CC(C)(C)NC(=O)c1ccc(F)c(-c2ccc3ncc(-c4ccc(S(C)(=O)=O)cc4)n3n2)c1	> 100	155	159	–
CS(=O)(=O)c1ccc(-c2cnc3ccc(-c4ccc(C(F)(F)F)c(F)c4)nn23)cc1	> 100	315	393	–
CS(=O)(=O)c1ccc(-c2cnc3ccc(-c4ccc(C(F)(F)F)nc4)nn23)cc1	> 100	633	763	–
CS(=O)(=O)c1ccc(-c2ccc3ncc(-c4ccc(S(C)(=O)=O)cc4)n3n2)cc1	> 100	753	706	–
CS(=O)(=O)c1ccc(-c2cnc3ccc(-c4cc(C(=O)NC5CCCCC5)ccc4F)nn23)cc1	> 100	> 2030	> 2030	–
c1cncc(-c2ccc3ncc(-c4cccnc4)n3n2)c1	> 100	1070	1270	–
CS(=O)(=O)c1ccc(-c2ccc3ncc(-c4cccnc4)n3n2)cc1	> 100	> 2850	> 2850	–
CS(=O)(=O)Nc1cccc(-c2ccc3ncc(-c4cncnc4)n3n2)c1	> 100	76	93	hepatic extraction ratio at 1 h, 1 µM [2]: 0.75
CS(=O)(=O)Nc1cccc(-c2ccc3ncc(-c4ccc([S+](N)[O-])cc4)n3n2)c1 (stereo unspecified)	> 100	20	18	hepatic extraction ratio at 1 h, 1 µM [2]: 0.42
N[S+]([O-])c1ccc(-c2ccc3ncc(-c4ccc([S+](N)[O-])cc4)n3n2)cc1 (stereo unspecified)	> 100	> 2330	> 2330	–
CN(C)S(=O)(=O)c1ccc(-c2ccc3ncc(-c4ccc(S(=O)(=O)N(C)C)cc4)n3n2)cc1	> 100	> 2060	> 2060	–
CS(=O)(=O)c1ccc(-c2ccc3ncc(-c4ccc(C(F)(F)F)cc4)n3n2)cc1	> 100	668	764	hepatic extraction ratio at 1 h, 1 µM [2]: < 0.28
O=C(c1ccc(-c2ccc3ncc(-c4ccc(C(F)(F)F)cc4)n3n2)cc1)N1CCOCC1	> 100	732	763	hepatic extraction ratio at 1 h, 1 µM [2]: 0.59
O[C@@H](c1cc(C(F)(F)F)nc2c(C(F)(F)F)cccc12)[C@H]1CCCCN1 (relative stereo) [(S,R)-MEFLOQUINE]	–	8.4	12	MSD (Plasmodium berghei [9]): 99.9 days; MSD (Plasmodium berghei [10]): 29 days
C[C@H]1[C@H](OC(=O)CCC(=O)O)O[C@@H]2O[C@@]3(C)CC[C@H]4[C@H](C)CC[C@@H]1[C@@]24OO3 [ARTESUNATE]	–	3	4	MSD (Plasmodium berghei [9]): 99 days; MSD (Plasmodium berghei [10]): 10 days
